According to patent publication US7365082B2, “N-(substituted arylmethyl)-4-(disubstituted methyl)piperidines and piperazines” (Bayer CropScience AG, priority 2002, dated 2008):

Tested on: tobacco budworm (Heliothis virescens [Fabricius])
Experiment: surface-treated diet test against tobacco budworm
Type: in vivo
Settings: 0.25 millimoles of candidate insecticide on the surface of the diet, second instar larvae, five-day exposure; for Percent Mortality: compared to the total number of insects infested; for Percent Growth Inhibition: inhibition of insect weight relative to untreated controls
Procedure: Candidate insecticides were evaluated for activity against the tobacco budworm (Heliothis virescens [Fabricius]) in a surface-treated diet test.
In this test one mL of molten (65-70° C.) wheat germ-based artificial diet was pipetted into each well of a four by six (24 well) multi-well plate (ID# 430345-15.5 mm dia.×17.6 mm deep; Corning Costar Corp., One Alewife Center, Cambridge, Mass. 02140). The diet was allowed to cool to ambient temperature before treatment with candidate insecticide.
For a determination of insecticidal activity, solutions of the candidate insecticides were prepared for testing using a Packard 204DT Multiprobe® Robotic System (Packard Instrument Company, 800 Research Parkway, Meriden, Conn. 06450), in which the robot first diluted a standard 50 millimolar DMSO solution of candidate insecticide with a 1:1 water/acetone solution (V/V) in a ratio of 1:7 stock solution to water/acetone. The robot subsequently pipetted 40 microliters of the so-prepared solution onto the surface of the diet in each of three wells in the 24 multi-well plate. The process was repeated with solutions of seven other candidate insecticides. Once treated, the contents of the multi-well plate were allowed to dry, leaving 0.25 millimoles of candidate insecticide on the surface of the diet, or a concentration of 0.25 millimolar. Appropriate untreated controls containing only DMSO on the diet surface were also included in this test.
For evaluations of the insecticidal activity of a candidate insecticide at varying rates of application, the test was established as described above using sub-multiples of the standard 50 millimolar DMSO solution of candidate insecticide. For example, the standard 50 millimolar solution was diluted by the robot with DMSO to give 5, 0.5, 0.05, 0.005, 0.0005 millimolar, or more dilute solutions of the candidate insecticide. In these evaluations there were six replicates of each rate of application placed on the surface of the diet in the 24 multi-well plate, for a total of four rates of application of candidate insecticide in each plate.
In each well of the test plate was placed one second instar tobacco budworm larvea, each weighing approximately five milligrams. After the larvae were placed in each well, the plate was sealed with clear polyfilm adhesive tape. The tape over each well was perforated to ensure an adequate air supply. The plates were then held in a growth chamber at 25° C. and 60% relative humidity for five days (light 14 hours/day).
After the five-day exposure period insecticidal activity for each rate of application of candidate insecticide was assessed as percent inhibition of insect weight relative to the weight of insects from untreated controls, and percent mortality when compared to the total number of insects infested.
The test compounds of formula I are identified by numbers that correspond to those in Table 1.

Compound	Percent Mortality [%]	Percent Growth Inhibition [%]
CCn1nnc(-c2ccc(CN3CCC(C(=NNC(=O)c4ccc(C(F)(F)F)cc4)c4ccc(OC(F)(F)F)cc4)CC3)cc2)n1 [Compound 147]	100	92
CCn1nnc(-c2ccc(CN3CCC(/C(=N\NC(=O)c4ccc(OC(F)(F)F)cc4)c4ccc(OC(F)(F)F)cc4)CC3)cc2)n1 [Compound 149, N-[1-aza-2-(1-{[4-(2-ethyl(1,2,3,4-tetraazol-5-yl))phenyl]methyl}(4-piperidyl))-2-[4-(trifluoromethoxy)phenyl]vinyl][4-(trifluoromethoxy)phenyl]carboxamide]	100	96
[O-][N+]1(Cc2ccc(Oc3ccccc3F)cc2)CCN(C(c2ccc(OC(F)(F)F)cc2)c2ccc(OC(F)(F)F)cc2)CC1 [Compound 172]	100	100
Cn1nnc(-c2ccc(CN3CCC(C(=NNC(=O)c4ccc(Cl)cc4)c4ccc(Cl)cc4)CC3)cc2)n1 [Compound 138]	0	14
FC(F)(F)c1ccc(C(c2ccc(C(F)(F)F)cc2)N2CCN(Cc3ccc(Oc4ncccn4)cc3)CC2)cc1 [Compound 169, 2-{4-[(4-{bis[4-(trifluoromethyl)phenyl]methyl}piperazinyl)methyl]phenoxy}pyrimidine]		100
Cn1nnc(-c2ccc(CN3CCC(C(=NNC(=O)c4ccc(OC(F)(F)F)cc4)c4ccc(OC(F)(F)F)cc4)CC3)cc2)n1 [Compound 148]	100	100
CC(C)OC(=O)Nc1ccc(C[N+]2([O-])CCN(C(c3ccc(C(F)(F)F)cc3)c3ccc(C(F)(F)F)cc3)CC2)cc1 [Compound 174]	100	100
[O-][N+]1(Cc2ccc(Oc3ccccn3)cc2)CCN(C(c2ccc(C(F)(F)F)cc2)c2ccc(C(F)(F)F)cc2)CC1 [Compound 177]	100	100
Cc1ccc(C(=O)NN=C(c2ccc(OC(F)(F)F)cc2)C2CCN(Cc3ccc(-c4nnn(C)n4)cc3)CC2)cc1 [Compound 145]	100	100
CCn1nnc(-c2ccc(CN3CCC(C(=NNc4ccccn4)c4ccc(OC(F)(F)F)cc4)CC3)cc2)n1 [Compound 92]	0	45
CCn1nnc(-c2ccc(CN3CCC(C(=NNc4ccc([N+](=O)[O-])cc4)c4ccc(OC(F)(F)F)cc4)CC3)cc2)n1 [Compound 126]	100	100
CC(C)NN=C(c1ccc(C(F)(F)F)cc1)C1CCN(Cc2ccc(-c3nnn(C)n3)cc2)CC1 [Compound 91]	0	79
CCCOc1ccc(CN2CCC(C(=NNc3ccc(OC(F)(F)F)cc3)c3ccc(OC(F)(F)F)cc3)CC2)cc1 [Compound 97]	100	100
CCn1nnc(-c2ccc(CN3CCC(C(=NNc4ccc(S(N)(=O)=O)cc4)c4ccc(OC(F)(F)F)cc4)CC3)cc2)n1 [Compound 125]	100	100
CCn1nnc(-c2ccc(C[N+]3([O-])CCN(C(c4ccc(C(F)(F)F)cc4)c4ccc(C(F)(F)F)cc4)CC3)cc2)n1 [Compound 175]	100	100
[O-][N+]1(Cc2ccc(Oc3ccccn3)cc2)CCN(C(c2ccc(Cl)cc2)c2ccc(C(F)(F)F)cc2)CC1 (stereo not drawn) [Compound 176]	100	100
O=C(NN=C(c1ccc(OC(F)(F)F)cc1)C1CCN(Cc2ccc(Oc3ccccn3)cc2)CC1)c1ccc(C(F)(F)F)cc1 [Compound 132]	83	100
CCn1nnc(-c2ccc(CN3CCC(C(=NNc4ccc(OC(F)(F)F)cc4)c4ccc(C(F)(F)F)cc4)CC3)cc2)n1 [Compound 119]	100	100
[O-][N+]1(Cc2ccc(Oc3ncccn3)cc2)CCN(C(c2ccc(Cl)cc2)c2ccc(C(F)(F)F)cc2)CC1 (stereo not drawn) [Compound 179]	100	100
CCn1nnc(-c2ccc(CN3CCC(C(=NNCc4ccc(C(F)(F)F)cc4)c4ccc(OC(F)(F)F)cc4)CC3)cc2)n1 [Compound 127]	100	100

Compound	Percent Mortality [%]	Percent Growth Inhibition [%]
CCn1nnc(-c2ccc(CN3CCC(C(=NNc4cccc(C(F)(F)F)c4)c4ccc(OC(F)(F)F)cc4)CC3)cc2)n1 [Compound 121]	100	100
CCn1nnc(-c2ccc(CN3CCC(C(=NNc4ccccc4C(F)(F)F)c4ccc(OC(F)(F)F)cc4)CC3)cc2)n1 [Compound 120]	0	40
CCn1nnc(-c2ccc(CN3CCC(C(=NNS(=O)(=O)c4ccc(C(F)(F)F)cc4)c4ccc(OC(F)(F)F)cc4)CC3)cc2)n1 [Compound 129]	100	95
Cn1nnc(-c2ccc(CN3CCC(C(=NNC(=O)c4cccc(Cl)c4)c4ccc(OC(F)(F)F)cc4)CC3)cc2)n1 [Compound 137]	100	100
Cn1nnc(-c2ccc(CN3CCC(C(=O)c4ccc(OC(F)(F)F)cc4)CC3)cc2)n1 [Compound 67]	100	95
COc1ccc(CN2CCC(C(=NNc3ccc(OC(F)(F)F)cc3)c3ccc(OC(F)(F)F)cc3)CC2)cc1 [Compound 96]	100	96
O=C(NN=C(c1ccc(OC(F)(F)F)cc1)C1CCN(Cc2ccc(Oc3ccccn3)cc2)CC1)c1ccc(Cl)cc1 [Compound 131]	50	100
O=C(c1ccc(OC(F)(F)F)cc1)C1CCN(Cc2ccc(-c3ccccn3)cc2)CC1 [Compound 62]	100	95
Cn1nnc(-c2ccc(CN3CCC(C(=NNC(=O)c4ccc(F)cc4)c4ccc(OC(F)(F)F)cc4)CC3)cc2)n1 [Compound 143]	17	87
CCn1nnc(-c2ccc(CN3CCC(C(=NNc4ccc(C)cc4)c4ccc(OC(F)(F)F)cc4)CC3)cc2)n1 [Compound 113]	100	100
[O-][N+]1(Cc2ccc(Oc3ncccn3)cc2)CCN(C(c2ccc(Cl)cc2)c2ccc(Cl)cc2)CC1 [Compound 178]	0	100
CCn1nnc(-c2ccc(CN3CCC(C(=NNc4ccc(OC(F)(F)F)cc4)c4ccc(OC(F)(F)F)cc4)CC3)cc2)n1 [Compound 124]	100	100
CCn1nnc(-c2ccc(CN3CCC(C(=NNc4ccc(C(C)C)cc4)c4ccc(OC(F)(F)F)cc4)CC3)cc2)n1 [Compound 114]	100	100
Cn1nnc(-c2ccc(CN3CCC(C(=NNC(=O)c4ccc(I)cc4)c4ccc(OC(F)(F)F)cc4)CC3)cc2)n1 [Compound 144]	100	100
CCn1nnc(-c2ccc(CN3CCC(C(=NNc4ccc(C(F)(F)F)cc4)c4ccc(OC(F)(F)F)cc4)CC3)cc2)n1 [Compound 122]	100	96
CCn1nnc(-c2ccc(CN3CCC(C(=Cc4ccc(OC(F)(F)F)cc4)c4ccc(Cl)cc4)CC3)cc2)n1 [Compound 94]	100	100
CCCOc1ccc(CN2CCC(C(=O)c3ccc(OC(F)(F)F)cc3)CC2)cc1 [Compound 43]	100	100
CCn1nnc(-c2ccc(CN3CCC(C(=O)c4ccc(OC(F)(F)F)cc4)CC3)cc2)n1 [Compound 72, 1-{[4-(2-ethyl(1,2,3,4-tetraazol-5-yl))phenyl]methyl}(4-piperidyl)4-(trifluoromethoxy)phenyl ketone]		95
O=C(c1ccc(OC(F)(F)F)cc1)C1CCN(Cc2ccc(F)cc2)CC1 [Compound 27]	0	97
FC(F)(F)c1ccc(C(c2ccc(Cl)cc2)N2CCN(Cc3ccc(Oc4ncccn4)cc3)CC2)cc1 (stereo not drawn) [Compound 168]	100	100
